Results taken from US4871730A, “Cephem compounds” (Fujisawa Pharmaceutical Co., Ltd., priority 1983, dated 1989).
Values after ≈ are worked out from the molar mass of the structure shown.

Test system: Escherichia coli 31
Assay: Minimal inhibitory concentration (MIC), in vitro antibacterial activity by two-fold agar-plate dilution method
Type: cell-based
Conditions: heart infusion agar, 37° C, 20 hours
Procedure: In vitro antibacterial activity was determined by the two-fold agar-plate dilution method as described below.
One loopful of an overnight culture of each test strain in trypticase-soy broth (10^8 viable cells per ml) was streaked on heart infusion agar (HI-agar) containing graded concentrations of representative test compounds, and the minimal inhibitory concentration (MIC) was expressed in terms of μg/ml after incubation at 37° C for 20 hours.

MIC	Compound
< 0.025 µg/mL	CO/N=C(\C(=O)NC1C(=O)N2C(C(=O)[O-])=C(S/C=C\c3ccc[n+](C)c3)CSC12)c1csc(N)n1 (stereo not drawn) [Test compound (1), 7-[2-(2-Aminothiazol-4-yl)-2-methoxyiminoacetamido]-3-[(Z)-2-(1-methyl-3-pyridinio)-vinylthio]-3-cephem-4-carboxylate (syn isomer)]
< 0.025 µg/mL	CO/N=C(\C(=O)NC1C(=O)N2C(C(=O)O)=C(S/C=C\c3cccnc3)CSC12)c1csc(N)n1 (stereo not drawn) [Test compound (2), 7-[2-(2-Aminothiazol-4-yl)-2-methoxyimino-acetamido]-3-[(Z)-2-(3-pyridyl)vinylthio]-3-cephem-4-carboxylic acid (syn isomer)]
0.05 µg/mL (≈ 0.0916 µM)	C=CCO/N=C(\C(=O)NC1C(=O)N2C(C(=O)O)=C(S/C=C\c3cccnc3)CSC12)c1nsc(N)n1 (stereo not drawn) [Test compound (3), 7-[2-Allyloxyimino-2-(5-amino-1,2,4-thiadiazol-3-yl)acetamido]-3-[(Z)-2-(3-pyridyl)vinylthio]-3-cephem-4-carboxylic acid (syn isomer)]
< 0.025 µg/mL	CCO/N=C(\C(=O)NC1C(=O)N2C(C(=O)[O-])=C(S/C=C\c3ccc[n+](C)c3)CSC12)c1csc(N)n1 (stereo not drawn) [Test compound (4), 7-[2-(2-Aminothiazol-4-yl)-2-ethoxyiminoacetamido]3-[(Z)-2-(1-methyl-3-piridinio)vinylthio]-3-cephem-4-carboxylate (syn isomer)]
